{"source": "patent US6451857B1", "about": "“Analgesic compositions comprising anti-epileptic compounds and methods of using same” (Warner-Lambert Company, priority 1999, dated 2002)", "tested_on": "carrageenan-induced thermal hyperalgesia", "test": "Carrageenan rat footpad thermal hyperalgesia test (Hargreaves test)", "format": "in vivo", "text": "The aim of this experiment was to characterize the antinociceptive and anti-inflammatory effects of gabapentin administered in combination with a prototypic NSAID in the rat. […] This assay utilizes an extract of seaweed (carrageenan) that, when injected into the footpad of test animals, causes a sterile inflammation, thereby lowering the pain threshold.\nMale Sprague-Dawley rats (200-250 g, Sasco Laboratories) were used. Rats were group housed 5/cage on a 12-hour light:dark cycle with free access to food and water. Rats received only one dose of a drug or drug combination. All drugs were administered orally by gavage.\nDose-effect curves were first determined for (1) gabapentin by itself and (2) a prototypic NSAID (e.g., naproxen) by itself. The ED50 value and 95% confidence limits of each agent was determined, as was the time to peak effect. […]\nCarrageenan-induced thermal hyperalpesia: Rats were acclimated to a testing chamber whose glass floor was maintained at 25° C. Thirty minutes later, a high intensity beam of light was focused through the glass on the ventral surface of each hindpaw, and the latency to reflex withdrawal of the paw from the light beam was measured to the nearest 0.1 second. […] Response latencies for the ipsilateral and contralateral hindpaws were then re-determined 15, 30, 45, 60, 90 and 120 minutes later. […]\nData were expressed as the mean ±SEM. […]", "data": [{"smiles": "COc1ccc2cc([C@H](C)C(=O)O)ccc2c1", "note": "[Naproxen sodium, naproxen sodium]", "values": [{"measurement": "anti-hyperalgesic action", "setting": "PO, gabapentin 3-100 mg/kg, naproxen sodium 0.3-30 mg/kg, combinations in fixed ratio", "result": "caused anti-hyperalgesic actions"}, {"measurement": "ED50", "setting": "Rattus norvegicus, 2 h, single drug, oral gavage, male Sprague-Dawley rats, data 120 min after dosing, 95% confidence limits in parentheses", "result": 0.36, "unit": "mg/kg"}]}]}
